We go through eight molecules from patent publication US6610683B2, “Treatment of infectious disease using interleukin-1β-converting enzyme (ICE)/CED-3 family inhibitors” (IDUN Pharmaceuticals, Inc., priority 1996, dated 2003).

Assay [1] has as its target T1, ICE (Homo sapiens, UniProt P29466).
T1 sequence (P29466 120-297 limits assumed): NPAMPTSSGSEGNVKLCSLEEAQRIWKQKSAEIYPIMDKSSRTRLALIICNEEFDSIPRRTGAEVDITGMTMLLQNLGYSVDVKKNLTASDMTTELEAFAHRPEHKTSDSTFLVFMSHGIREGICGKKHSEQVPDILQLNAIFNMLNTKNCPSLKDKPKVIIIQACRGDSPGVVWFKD
T1 sequence (P29466 317-404 limits assumed): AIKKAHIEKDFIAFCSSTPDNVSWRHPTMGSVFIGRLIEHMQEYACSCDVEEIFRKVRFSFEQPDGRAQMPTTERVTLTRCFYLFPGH
The conditions noted are these: cited from earlier work.

Assay [2] deals with mammary epithelial cells. The conditions noted are these: absence of extracellular matrix; cited from earlier work.
Assay [3] concerns granulocytes. Description: Respiratory burst in isolated neutrophils measured by chemiluminescence (opsonized zymosan). Conditions: FIG. 7. In kind it is cell-based. As to the method:
Respiratory burst in isolated neutrophils measured by Chemiluminescence
Whole blood anticoagulated with Acid Citrate Dextrose (ACD) with a ratio of 1:5 ACD to blood was collected (150 ml).
Neutrophils were isolated as described above.
Opsonized zymosan was prepared by suspending 125 mg zymosan particles in 25 ml pooled human serum (5 mg/ml) and incubating them for 20 minutes at 37° C. Centrifuge the suspension and resuspend the particles in 7 ml of PBS (18 mg/ml) and stored on ice until use (vortex prior to pipetting).
50 ml of a 250 μM solution of Lucigenin (MW 510.5) was prepared by dissolving 6.4 mg of the solid in 50 ml of PBS-G (+Ca, Mg). 10 μl of PBS-G (+Ca, Mg) to the wells in a white 96 well plate.
50 μl of the 250 μM Lucigenin solution was added to the wells in a white 96 well plate.
Cell preparations were obatined from cell culture (concentration at time zero=5.0×10^6 cells/ml) with PBS-G (+Ca, Mg). 20 μl of the neutrophil suspension was suspended to the appropriate wells and the plate was incubated the plate at 37° C. for three minutes. 10 μl of the opsonized zymosan was added to the wells.
The plate was read on the luminometer (Labsystems Luminoskan, Needham Heights, Mass.) for 14 min. at 37° C. in the kinetic mode and record results using the software DeltaSoft.
The ability to undergo the respiratory burst is another measure of granulocyte viability. The respiratory burst is a physiological response of granulocytes to foreign stimuli such as bacteria. In this example, the method for inducing the respiratory burst utilized opsonized bacterial zymosan. The respiratory burst was measured via chemiluminescence.

Assay [4] relates to granulocytes in whole blood. The assay can be described thus: Whole blood assay: survival of granulocytes by hypodiploid analysis via flow cytometry. In kind it is cell-based. Conditions: time zero. As to the method:
The following reagents were used:
anti-CD32-FITC monoclonal antibody obtained from Pharmingen.
25 Lysing Solution (10×Stock: 89.9 g NH4Cl;
(DPBS without calcium or magnesium obtained from Irivine Scientific. 2% fetal bovine serum in DPBS stored at 4° C. 50 μg/ml propidium iodide in DPBS sterile filtered and stored at 4° C.)
200 μl blood sample/2.8 ml 1×lysis solution in a 15 ml polypropylene conical tube.
Cap and invert to mix. Leave at room temperature for 3-5 minutes.
Centrifuge in a table-top Sorvall at 1200 rpm for 5 minutes at 4° C.
Aspirate supernate. Resuspend pellet in 200 μl/sample 2% FBS/DPBS. Add 20 μl/sample anti-CD32-FITC. Incubate 30 minutes on ice in the dark.
Add 5 ml/sample DPBS. Centrifuge at 1000 rpm for 5 minutes at 4° C.
Aspirate supernate. Resuspend pellet in1 ml/sample 2% FBS/DPBS.
Add 3 ml/sample ice-cold 95% EtOH dropwise while vortexing gently.
Incubate samples on ice in the dark for 30 minutes.
Centrifuge at 1000 rpm for 5 minutes at 4° C.
Resuspend each sample in 50 μl 5 mg/ml RN'ase. Transfer sample to 900 μl/sample […] Propidium Iodide in 12×75 mm Falcon polystyrene tubes.
Incubate on ice for 30 minutes.
Analyze samples by flow cytometry (argon laser) for forward and side scatter and fluorescence.
Survival of granulocytes in whole blood was measured by hypodiploid analysis in a similar fashion to isolated granulocytes via flow cytometry. […]
In general terms: Flow cytometry measures light scatter and fluorescence of single cells or particles in a stream.

Assay [5] has as its system T-lymphocyte cell line. Conditions: cited from earlier work.
The test system of assay [6] is motoneurons. The conditions noted are these: in vitro and in vivo; cited from earlier work.
Assay [7] relates to granulocytes. Description: Granulocyte survival in culture, hypodiploid nuclei by propidium iodide flow cytometry. In kind it is cell-based. Conditions: at 48 hours; FIG. 6. As to the method:
Whole blood anticoagulated with Acid Citrate Dextrose (ACD) with a ratio of 1:5 ACD to blood was collected (˜100 ml).
Using polypropylene plastic ware, neutrophils are isolated as follows:
30 ml of the whole blood is added to 50 ml polypropylene centrifuge tubes containing 15 ml of 6% Dextran (in Saline). The blood is allowed to sediment for approximately 1 hour at room temperature.
The turbid straw colored layer harvested from the top of the cylinders into 50 ml conical polypropylene tubes. The blood cells were pelleted by centrifugation at 240×g (Sorvall centrifuge at 1200 rpm) for 12 min. at 4° C. with the brake on low. […]
The supernatant was aspirated and the neutrophil pellet resuspended in 4.0 ml cold PBS (w/o Ca, Mg) on ice. 10 μl of the neutrophil cell suspension was diluted with 990 μl of Trypan blue (1:100) and cells counted using a hemacytometer. The cell number and viability were determined. […]
Neutrophils were resuspended in hypotonic fluorochrome solution at a density of 5×10^6 cells/ml. Propidium iodide fluorescence of individual nuclei was evaluated in FL2 and measured on a logarithmic scale while gating on physical parameters in forward and side scatter to exlude cell debris.
At least 10,000 events per sample were collected and the results were evaluated relative to a non-apoptotic neutrophil population. […]

The mark [8] stands for this setting: after granulocyte culture for 72 hours.

Residues, ends and D or L forms follow the SMILES beside them. *: point of attachment. Cbz = O=C(OCc1ccccc1)*; CH2F = FC*

On to `CC(=O)NC(Cc1ccc(O)cc1)C(=O)NC(C(=O)NC(C)C(=O)NC(CC(=O)O)C(=O)C=[N+]=[N-])C(C)C` (stereo not drawn) [AC-Tyr-Val-Ala-Asp-COCHN2], for which the “inhibition of the enzyme (ICE)” value in assay [1] is given as “potent, competitive, irreversible inhibitor”. On to `CC(C)(C)OC(=O)N[C@@H](CC(=O)OCc1ccccc1)C(=O)CCl` [Boc-D-(benzyl) chloromethylketone], for which the “prevention of cell death of mammary epithelial cells” value in assay [2] is given as “prevented”. In the case of `Cc1c(C(=O)N[C@H](C(=O)NC(CC(=O)O)C(=O)CF)C(C)C)n(C)c2ccccc12` (stereo partly drawn) [Example 43, N-[(1,3-dimethylindole-2-carbonyl)Valinyl]-3-amino-4-Oxo-5-fluoropentanoic Acid], the figures for the “maintenance of the respiratory burst” value in assay [3] (setting [8]) and in assay [3] (for 48 hours) were “partially maintained” and “substantially maintained”, respectively.

Take `Cc1c(C(=O)N[C@H](C(=O)NC(CC(=O)O)C(=O)COC(=O)c2c(Cl)cccc2Cl)C(C)C)n(C)c2ccccc12` (stereo partly drawn) [Example 70, N-[N-(1,3-dimethyl-indole-2-carbonyl)-valinyl]-3-amino-5-(2,6-dichlorobenzoyl)oxy-4-oxo-pentanoic Acid]: the “maintenance of the respiratory burst” value in assay [3] (setting [8]) is “partially maintained”; in assay [3] (for 48 hours), “substantially maintained”. Also, the “Percentage of diploid granulocytes in whole blood” value in assay [4] is 96%. With `CC(=O)N[C@@H](CC(=O)O)C(=O)N[C@@H](CCC(=O)O)C(=O)N[C@H](C(=O)N[C@H](C=O)CC(=O)O)C(C)C` [acetyl-DEVD-aldehyde], in assay [5], the “inhibition of anti-Fas induced apoptosis” value is “inhibited”. As for `CC(=O)N[C@@H](Cc1ccc(O)cc1)C(=O)N[C@H](C(=O)N[C@@H](C)C(=O)N[C@H](C=O)CC(=O)O)C(C)C` [acetyl-YVAD-aldehyde], the “block of the death of motoneurons” value in assay [6] was “blocked”. Consider `CC(=O)N[C@@H](Cc1ccc(O)cc1)C(=O)N[C@H](C(=O)N[C@@H](C)C(=O)N[C@@H](CC(=O)O)C(=O)CCl)C(C)C` [acetyl-YVAD-chloromethylketone], for which the “block of the death of motoneurons” value in assay [6] is “blocked”. On to `COC(=O)C[C@H](NC(=O)[C@H](C)NC(=O)[C@@H](NC(=O)OCc1ccccc1)C(C)C)C(=O)CF` [zVADfmk] (Cbz-Val-Ala-Asp(OMe)-CH2F), for which the “maintenance of the respiratory burst” value in assay [3] (opsonized zymosan, chemiluminescence) is recorded as “did not maintain the respiratory burst”. Also, in assay [7], the “effect on improving granulocyte survival” value is on record as “weak effect”.
